Our source for the IC50 and inhibition values is ChEMBL document CHEMBL3758098, “3-(Dipropylamino)-5-hydroxybenzofuro[2,3-f]quinazolin-1(2H)-one (DPA-HBFQ-1) plays an inhibitory role on breast cancer cell growth and progression” (Eur J Med Chem, 2016).

Each structure is given as a SMILES string. pIC50: −log10 of the molar value. Calls of active or inactive are those of the source. No cut-off for these calls is given here.

Experiment [1] in a line: Cytotoxicity against human MCF-7 TR1 cells assessed as cell colony formation after 14 days by crystal violet staining-based assay. It is filed as functional. The following applies: MCF-7 TR1, 336 h.
Another experiment concerns MDA-MB-231. The experiment in a line: Cytotoxicity against human MDA-MB-231 cells assessed as cell viability after 5 days by MTT assay. Conditions: MDA-MB-231, 120 h. In kind it is functional, cell-based. (Formazan colour is commonly taken as a measure of viable cells.)
The next experiment has as its system HeLa. As to the kind of experiment: Cytotoxicity against human HeLa cells assessed as growth inhibition by MTT assay. In kind it is functional, cell-based.
The nature of experiment [2]: Cytotoxicity against rat R2C cells assessed as growth inhibition by MTT assay. It is filed as functional, cell-based.
For another experiment, the system named is Ishikawa. The experiment in a line: Cytotoxicity against human Ishikawa cells assessed as growth inhibition by MTT assay. In kind it is functional, cell-based.
For a further experiment, the system named is MCF7. As to the kind of experiment: Cytotoxicity against human MCF7 cells assessed as cell viability after 5 days by MTT assay. It is filed as functional, cell-based. Conditions: MCF7, 120 h.
In experiment [3] the target is T1, DNA topoisomerase 1 (Homo sapiens) (UniProt P11387).
T1 sequence (whole entry): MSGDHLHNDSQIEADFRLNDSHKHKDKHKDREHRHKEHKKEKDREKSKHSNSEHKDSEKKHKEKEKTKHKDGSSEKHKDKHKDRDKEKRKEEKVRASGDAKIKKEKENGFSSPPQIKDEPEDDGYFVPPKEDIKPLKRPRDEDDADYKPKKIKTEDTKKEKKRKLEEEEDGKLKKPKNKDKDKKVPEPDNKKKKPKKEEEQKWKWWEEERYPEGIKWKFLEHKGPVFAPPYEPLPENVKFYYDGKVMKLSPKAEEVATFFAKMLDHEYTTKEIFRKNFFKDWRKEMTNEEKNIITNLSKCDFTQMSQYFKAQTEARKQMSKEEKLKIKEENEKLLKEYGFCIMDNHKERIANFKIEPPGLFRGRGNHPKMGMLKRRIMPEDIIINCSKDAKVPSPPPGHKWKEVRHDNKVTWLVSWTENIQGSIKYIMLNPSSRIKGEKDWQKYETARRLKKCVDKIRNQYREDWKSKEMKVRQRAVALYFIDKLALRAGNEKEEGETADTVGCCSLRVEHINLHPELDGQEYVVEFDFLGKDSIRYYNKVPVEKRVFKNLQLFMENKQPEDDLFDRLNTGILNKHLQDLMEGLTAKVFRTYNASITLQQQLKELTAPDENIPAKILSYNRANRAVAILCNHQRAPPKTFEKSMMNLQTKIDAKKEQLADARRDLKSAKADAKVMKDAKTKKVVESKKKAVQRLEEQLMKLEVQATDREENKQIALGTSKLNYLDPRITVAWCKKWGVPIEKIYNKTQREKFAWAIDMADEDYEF
The experiment in a line: Inhibition of recombinant human topoisomerase 1 assessed as relaxation of supercoiled pHOT1 at 10 uM after 30 mins by agarose gel electrophoresis.

Experiment [4] concerns the target DNA topoisomerase 2-alpha (Homo sapiens) (UniProt P11388). Conditions: 10 uM.
Description: Inhibition of human topoisomerase 2 assessed as decatenation of kDNA at 10 uM after 30 mins by agarose gel electrophoresis
For the next experiment, the system named is HepG2. As to the kind of experiment: Cytotoxicity against human HepG2 cells assessed as growth inhibition by MTT assay. In kind it is functional, cell-based.
Experiment [5] has as its target DNA topoisomerase 2-alpha (Homo sapiens) (UniProt P11388). Conditions: 50 uM.
Description: Inhibition of human topoisomerase 2 assessed as decatenation of kDNA at 50 uM after 30 mins by agarose gel electrophoresis
For experiment [6], the target named is T1, DNA topoisomerase 1 (Homo sapiens). The experiment in a line: Inhibition of recombinant human topoisomerase 1 assessed as relaxation of supercoiled pHOT1 at 50 uM after 30 mins by agarose gel electrophoresis.
Experiment [7] in a line: Cytotoxicity against human MCF10A cells assessed as cell viability after 5 days by MTT assay. It is filed as cell-based. The following applies: MCF-10A, 120 h.

Sequence of DNA topoisomerase 2-alpha (Homo sapiens) (P11388 whole entry): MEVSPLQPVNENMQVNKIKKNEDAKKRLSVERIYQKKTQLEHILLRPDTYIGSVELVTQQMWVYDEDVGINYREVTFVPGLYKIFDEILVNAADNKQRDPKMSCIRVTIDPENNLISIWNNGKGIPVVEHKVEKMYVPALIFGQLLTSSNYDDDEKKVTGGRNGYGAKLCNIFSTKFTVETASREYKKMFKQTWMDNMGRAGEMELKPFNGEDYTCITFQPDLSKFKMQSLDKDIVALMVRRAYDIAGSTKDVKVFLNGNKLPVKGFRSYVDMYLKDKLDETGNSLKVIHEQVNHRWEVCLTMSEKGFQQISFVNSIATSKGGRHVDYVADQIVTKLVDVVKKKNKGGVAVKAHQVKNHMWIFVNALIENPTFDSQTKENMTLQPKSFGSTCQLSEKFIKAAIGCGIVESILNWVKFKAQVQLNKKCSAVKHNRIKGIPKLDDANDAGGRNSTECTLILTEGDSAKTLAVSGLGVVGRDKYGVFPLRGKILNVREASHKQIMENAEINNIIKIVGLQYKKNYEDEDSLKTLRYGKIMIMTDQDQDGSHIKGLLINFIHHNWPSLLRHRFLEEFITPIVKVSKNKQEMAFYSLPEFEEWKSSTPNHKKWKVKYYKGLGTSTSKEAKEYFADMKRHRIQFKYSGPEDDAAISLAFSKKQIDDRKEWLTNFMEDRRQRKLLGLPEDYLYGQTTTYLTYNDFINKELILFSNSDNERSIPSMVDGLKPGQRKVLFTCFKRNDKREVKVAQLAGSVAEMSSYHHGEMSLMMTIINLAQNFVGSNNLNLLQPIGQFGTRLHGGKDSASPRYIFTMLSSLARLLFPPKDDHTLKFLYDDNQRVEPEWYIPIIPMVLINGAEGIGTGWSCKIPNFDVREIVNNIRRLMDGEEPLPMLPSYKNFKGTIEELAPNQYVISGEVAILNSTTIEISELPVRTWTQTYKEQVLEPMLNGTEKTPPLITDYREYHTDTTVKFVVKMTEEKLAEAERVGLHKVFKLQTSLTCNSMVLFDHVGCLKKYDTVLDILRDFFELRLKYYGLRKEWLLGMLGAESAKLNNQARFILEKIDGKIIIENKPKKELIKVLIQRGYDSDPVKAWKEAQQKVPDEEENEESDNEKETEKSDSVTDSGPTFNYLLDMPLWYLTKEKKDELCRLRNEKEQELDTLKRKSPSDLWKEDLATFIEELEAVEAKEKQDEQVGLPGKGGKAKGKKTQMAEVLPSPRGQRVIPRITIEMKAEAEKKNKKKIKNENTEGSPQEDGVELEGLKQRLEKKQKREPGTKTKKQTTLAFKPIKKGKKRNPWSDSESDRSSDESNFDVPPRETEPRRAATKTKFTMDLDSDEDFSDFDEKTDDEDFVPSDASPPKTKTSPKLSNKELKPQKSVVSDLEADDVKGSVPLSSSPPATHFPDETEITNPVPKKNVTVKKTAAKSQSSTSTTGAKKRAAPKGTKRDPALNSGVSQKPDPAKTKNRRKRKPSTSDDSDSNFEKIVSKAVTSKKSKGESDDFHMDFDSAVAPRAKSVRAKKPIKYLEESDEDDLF

One may read the pIC50 as the negative decadic logarithm of the IC50, by convention in mol/L. Take `Cc1c2ccncc2c(C)c2c1[nH]c1ccccc12` [ELLIPTECINE]: the pIC50 is 5.76 in experiment [1]; 5.74 in the experiment on MDA-MB-231; 6.00 in the experiment with HeLa; 5.70 in experiment [2]; 5.82 with Ishikawa; 5.90 in the experiment with MCF7. Further, the pIC50 is 5.54 in the experiment with HepG2 and 5.92 in [7]. Further, the inhibition result in [3], in [4], in experiment [5] and in [6] was “Active” in each case.
